According to PMC8901748, “A novel prostaglandin E receptor 4 (EP4) small molecule antagonist induces articular cartilage regeneration” (Cell Discovery, 2022):

Assays:
[1] = test system: Sox9 target genes in ATDC5 cells; assay: qRT-PCR of Sox9 target genes in ATDC5 cells; assay type: cell-based, mouse; conditions: 30 μM HL-43, 24 hr
Procedure: (§1) Quantitative RT-PCR was performed to measure the relative mRNA levels. RNA samples were prepared from the chondrocytes using Trizol (Takara). cDNA was generated using the Prime Script RT reverse transcriptase kit (Yeasen, Drr036a). Primers used for amplification were shown in Supplementary Table S1, GAPDH was used as the house keeping gene.

[2] = test system: mouse femoral head cartilage explants; assay: Mouse femoral head cartilage explant culture; assay type: cell-based; conditions: 1 ng/ml IL-1β, 48 h
[3] = test system: Col2a1, Acan, Mmp3, Mmp9, Mmp13 expression in primary mouse chondrocytes; assay: qRT-PCR of anabolic and catabolic factors in primary chondrocytes; assay type: cell-based
Procedure: ATDC5 cell line was purchased from Riken BioResource Center (Tsukuba, Japan) and grown in a 1:1 mixture of DMEM/F12 medium (Corning, 10-092-CVR) supplemented with 5% fetal bovine serum (Gibco, 10099, USA) and 1% penicillin-streptomycin solution (Life Technologies). Cells were maintained at 37 °C under 5% CO2. Primary chondrocytes were obtained from knee joint cartilage of newborn mice. Knee joints were dissected from the tibia plateau and femoral condyle articular cartilage of mouse pups and digested in 0.1% collagenase type II (Sigma) overnight at 37 °C and chondrocytes were harvested by centrifugation. Primary chondrocytes were cultured at a density of 5 × 10^3 cells per ml at 37 °C with 5% CO2. DMEM/F12 medium with 10% fetal bovine serum (FBS) and 1% penicillin–streptomycin was used to culture the primary chondrocytes. Chondrogenic differentiation were induced with chondrogenic medium, which contains insulin-transferrin-selenium (ITS) (Sigma, I3146), 10 ng/ml TGF-β3 (PEPROTECH, 100-36E, USA), 100 nM Dexamethasone (Sigma, D4902), 50 μg/ml VC (Sigma), 1 mM sodium pyruvate (Sigma) and 40 μg/ml proline (Sigma), and/or treatment with rmIL-1β (R&D, 401-ML/CF), TNFα (PEPROTECH, 300-01A-50) in DMEM/F12 for indicated days. Western blotting was performed according to standard protocols. Antibodies used were: rabbit anti-Mmp3 (1:1000, HuaBio), rabbit anti-Mmp13 (1:500, abcam, ab39012), rabbit anti-p-CREB (1:2000, Cell Signaling Technology, 87G3), rabbit anti-CREB (1:2000, Cell Signaling Technology, 48H2), mouse anti-GAPDH (1:5000; Sigma-Aldrich, G8795), rabbit anti-Col2 (Abcam, Ab34712), rabbit anti-STAT3 (1:2000; Abcam, ab68153), rabbit anti-p-STAT3 (Y705) (1:2000; Abcam, ab76315), rabbit anti -p65 (1:1000; CST, 3034), rabbit anti-p-p65 (1:1000; CST, 3033), and rabbit anti-IκBα (1:1000; Abways, CY5026).
as §1

[4] = test system: human articular cartilage explants; assay: Human articular cartilage explant culture (S.O. staining, DMMB assay, qRT-PCR, immunohistochemistry); assay type: cell-based
From the text: Human articular cartilage explants of OA patients undergoing total knee replacement surgery were collected (3 mm × 3 mm), with the approval of the Human Ethics Committee of Shanghai Sixth People’s Hospital (2021-048). The full thickness cartilage tissue samples were harvested from tibia plateau avoiding subchondral bone. We control the quality of the explants according to the principle mentioned below. (1) The human articular cartilage explants were harvested from the relatively intact region of the tibia plateau. (2) The explants from different patients were cut from the same position of tibia plateau avoiding subchondral bone. (3) The explants were cut in the size of 3 mm × 3 mm for the DMMB assay and the S.O. staining. (4) To avoid inter-patient and intra-patient sample heterogeneous, explants used within the same drug experiment (vehicle and treatment) must be collected in locations in close proximity and from the same patient. Each explant in the groups that treated with the same drug was from the same patient. The cartilage explants for Safranin-O/Fast-green (S.O.) staining and immunofluorescence were fixed in 4% paraformaldehyde (PFA) (wt/vol) overnight at 4 °C, embedded in paraffin, sliced (7 μm) and mounted on positively charged slides. The cartilage explants (3 mm × 3 mm) for DMMB assay and S.O. staining were harvested and placed in 24-well plates and cultured in 1 ml of serum-free F12 culture media for 24 h. n ≥ 4 patients were assessed. The media was then replaced with F12 culture media containing serum, added 1 ng/ml IL-1β, Celecoxib, Grapiprant, HL-43, and explants were cultured for a further 7 days. The culture media was collected for the release of glycosaminoglycans. To quantify GAGs, media were mixed with DMMB in formate buffer and absorbance at 535 nm was determined using a Spectramax plate reader (Molecular Devices, Sunnyvale, CA). […] We calculated the proteoglycan staining area using Image J with a region of interest of a 1 × 1 mm square, drawn at the edge of the cartilage surface under 10× objective. […]

[5] = test system: cAMP in primary chondrocytes; assay: cAMP assay; assay type: cell-based; conditions: primary mouse chondrocytes, 2 h
Procedure: The cAMP concentration of primary chondrocytes was detected by cAMP dynamic kit (Cisbio, France) following the manufacturer’s instructions. cAMP standards were diluted according to the kit instructions. Cells were treated with HL-43 for 2 h and the relative fold change of cAMP was determined by comparing with the cAMP standard curve.

## C[C@H](NC(=O)c1c(-c2ccccc2)nnn1CCOc1ccc(F)cc1)c1ccc(C(=O)O)cc1 [HL-43]
[1]
  Sox9 target genes (Col2a1, Acan, Sox5, Col9a1, Col11a1, Col27a1, Dcn, Prg4), qRT-PCR: upregulated
[2]
  Mmp13 immunohistochemistry staining: reduced immunohistochemistry staining for the catabolic marker Mmp13
  Proteoglycan content by S.O. staining: favorable effect on the proteoglycan content
[3]; 2 ng/ml IL-1β, 24 h
  EP4 and STAT3 dependent increase in MMP3/13 expression: dose-dependently inhibited
[3]; primary mouse chondrocytes, 1 ng/ml IL-1β, 24 h
  Expression of catabolic factors (Mmp3, Mmp9, and Mmp13): attenuated the expression of catabolic factors (Mmp3, Mmp9, and Mmp13) in a dose-dependent manner
[3]; primary mouse chondrocytes, 24 h
  Expression of anabolic factors (Col2a1 and Acan): promoted the expression of anabolic factors
[3]; primary murine chondrocytes, 1 ng/ml IL-1β, 24 hr, EP4 antagonists (2 nM)
  Col2a1 expression (screen of EP4 antagonists): highest potency in inducing Col2a1 expression
[3]; primary murine chondrocytes, 1 ng/ml IL-1β, 24 hr, EP4 antagonists (30 μM)
  Mmp3 expression (screen of EP4 antagonists): reducing Mmp3 expression
[4]; human OA cartilage explants, 1 week
  Percentage area of proteoglycan by S.O. staining: increased with HL-43 treatment in a dose-dependent manner
[4]; human cartilage explants
  Immunohistochemistry of ACAN, SOX9, MMP13, COLX: inducted anabolic factors (ACAN and SOX9), and suppressed catabolic factor (MMP13), and hypertrophic marker (COLX)
[4]; human explants, 1 ng/ml IL-1β, 24 h, Celecoxib 10 μM, Grapiprant and HL-43 30 μM
  Expression of anabolic factors (COL2A1, ACAN, SOX9) and catabolic factor (MMP13), qRT-PCR: best efficacy
[5]
  cAMP production: dose-dependently induced cAMP production
